Measured values published in patent publication US20250249113A1, “LIGAND-DRUG-CONJUGATES WITH IMPROVED PHARMACOKINETIC AND DRUG RELEASE PROPERTIES” (Debiopharm Research & Manufacturing S.A., priority 2022, published 2025).
Where a SMILES comes first, the peptide text is derived from it. Side-chain parts run from the residue outwards. [ ]: non-standard residue; d: D form. The star is where a group is joined. DM1Mal(CH2)2CO = COc1cc2cc(c1Cl)N(C)C(=O)C[C@H](OC(=O)[C@H](C)N(C)C(=O)CCSC1CC(=O)N(CCC(=O)*)C1=O)[C@]1(C)O[C@H]1[C@H](C)[C@@H]1C[C@@](O)(NC(=O)O1)[C@H](OC)/C=C/C=C(\C)C2; X1 = CC(=O)N[C@@H](CSC1CC(=O)N(CCC(=O)*)C1=O)C(=O)O; Dolaproine = CO[C@@H]([C@@H]1CCCN1)[C@@H](C)C(=O)O; Dil = CC[C@H](C)[C@H](NC)[C@@H](CC(=O)O)OC; NMe2Val = CC(C)[C@@H](C(=O)*)N(C)C; PEG5 = NCCOCCOCCOCCOCCOCCC(=O)O; Cit = NC(=O)NCCC[C@H](N)C(=O)O; PEG4 = NCCOCCOCCOCCOCCC(=O)O

Assays:
Cathepsin B = biological target: T1, Cathepsin B (Homo sapiens, UniProt P07858); experiment: Cat B-induced cleavage study (in vitro enzymatic cleavage assay, UHPLC-MS/MS); assay type: biochemical; details: for Ratio (T1/2 Compound/T1/2 Reference): reference: Cys-MC-Val-Cit-PABC-MMAF; for half-life at 10 μM: human, recombinant human Cathepsin B, 10 μM compound, Cathepsin B 2 μg/mL, 25 mM MES buffer pH 5.0, 37° C., read-out: T1/2 Compound
T1 construct: purchased R&D Systems, Bio-Techne AG 953-CY-010
Procedure: (§1) The propensity of compounds 1-13 to be cleaved by Cathepsin B—was evaluated according to an in vitro enzymatic cleavage assay using recombinant human Cathepsin B and UHPLC-MS/MS analysis as described below.
(§2) Reference compounds Cys-MC-Val-Cit-PABC-MMAF and MMAF were used as positive controls. The enzyme was reconstituted in 25 mM MES buffer adjusted at pH 5.0 with a 1M NaOH solution and then activated with a […] solution of DDT at room temperature for at least 15 min.
(§3) The in vitro enzymatic assay was conducted at 37° C. with the test compounds at a concentration of 10 μM (2.5 μM when the test compound is an antibody-drug conjugate) in the presence of activated recombinant human Cathepsin B enzyme at 2 μg/mL in a 25 mM MES buffer pH 5.0. The enzymatic cleavage reaction was stopped for each defined time point by mixing an equal volume of acetonitrile+0.1% FA containing an internal standard (warfarine at 8 μM).
(§4) Analysis was conducted using a Waters Acquity UPLC System coupled to a Waters Xevo TQ triple quad mass spectrometer. UHPLC was conducted depending on the test compounds with a BEH C8 1.7 μm 100×2.1 mm or BEH C18 1.7 μm 50×2.1 mm or HSS T3 1.7 μm 50×2.1 mm columns heated at 45° C. or 50° C. and fitted with 2 μm insert filter pre-columns (available from Waters), and solvent systems A1 (H2O+0.1% FA) and B1 (acetonitrile+0.1% FA) at a flow rate of 0.6 mL/min and a 10-95% gradient of B1 over 1.9 min.
(§5) MS/MS was performed using electrospray ionization (ESI) interface in positive mode and specific MRM transitions for each tested compound.

[1] = biological target: T2, Cathepsin B (exo-Cat B cleavage) (Homo sapiens, UniProt P07858); experiment: as above; assay type: biochemical; details: human, recombinant human Cathepsin B, pH 5; read-out: T1/2 (cleavage by exo-Cat B)
T2 construct: purchased R&D Systems, Bio-Techne AG 953-CY-010
Procedure: as §1, §2, §3, §4, §5

[2] = DRF toxicity study of DM1-Ac-Cit and DM1-Ac-Cit-Lys(Cys-ma-Lys(PEG16))-Tyr-OH, 2 intravenous bolus injections (Day 1 and Day 8), female mice; assay type: in vivo, mouse; details: for related mortalities, clinical observations or effects on body weights and food consumption / related ophthalmic findings or changes in clinical pathology parameters / related organ weight changes, macroscopic and microscopic findings: DM1-Ac-Cit 0.15, 0.68 or 1.4 mg/kg/adm, DM1-Ac-Cit-Lys(Cys-ma-Lys(PEG16))-Tyr-OH 3.5 mg/kg/adm, 2 i.v. injections
Procedure: The objectives of this study were to determine the potential toxicity of Multilink-DM1-Ac-Cit and DM1-Ac-Cit-Lys(Cys-ma-Lys(PEG16))-Tyr-OH when administered intravenously (via bolus injection).
2 injections of the same dose of either DM1-Ac-Cit ((test item 1) at 0.15, 0.68 or 1.4 mg/kg/adm) or 2 injections of the same dose of DM1-Ac-Cit-Lys(Cys-ma-Lys(PEG16))-Tyr-OH ((test item 2) at 3.5 mg/kg/adm were administered separately (on Day 1 and Day 8 (7-day interval) to CD-1® IGS mice, and the reversibility and/or delayed occurrence of any findings were evaluated during a 10-day observation period. In addition, the toxicokinetic characteristics of DM1-Ac-Cit-Lys(Cys-ma-Lys(PEG16))-Tyr-OH, DM1-Ac-Cit, and the catabolite DM1 were determined.
A control group received the Vehicle Control 1: 8% Ethanol/8% Polysorbate (Tween*) 80/PBS 84%.
The study design was as follows:
The following parameters and end points were evaluated in this study: mortality, clinical observations, body weights, food consumption, ophthalmology, clinical pathology parameters (hematology and clinical chemistry), toxicokinetic parameters, organ weights, and macroscopic and microscopic examinations.

Molecule	Ratio (T1/2 Compound/T1/2 Reference) (Cathepsin B)	half-life at 10 μM (Cathepsin B)	also measured
CC[C@H](C)[C@@H]([C@@H](CC(=O)N1CCC[C@H]1[C@H](OC)[C@@H](C)C(=O)N[C@@H](Cc1ccccc1)C(=O)N[C@@H](CCCNC(=N)N)C(=O)N[C@@H](CCCCNC(=O)CCOCCOCCOCCOCCOCCNC(=O)CCN1C(=O)CC(SC[C@H](NC(C)=O)C(=O)O)C1=O)C(=O)N[C@@H](Cc1ccccc1)C(=O)O)OC)N(C)C(=O)[C@@H](NC(=O)[C@H](C(C)C)N(C)C)C(C)C (stereo partly drawn) [Compound 1, AF-Arg-Lys(PEG4-Mal-Cys-Ac)-Phe-OH] (NMe2Val-V[Dil][Dolaproine]FRK([PEG5-X1])F-OH; N-terminus assumed)	0.12	–	–
CC[C@H](C)[C@@H]([C@@H](CC(=O)N1CCC[C@H]1[C@H](OC)[C@@H](C)C(=O)N[C@@H](Cc1ccccc1)C(=O)N[C@@H](CCCNC(=N)N)C(=O)N[C@@H](Cc1ccccc1)C(=O)N[C@@H](CCCCNC(=O)CCOCCOCCOCCOCCNC(=O)CCN1C(=O)CC(SC[C@H](NC(C)=O)C(=O)O)C1=O)C(=O)O)OC)N(C)C(=O)[C@@H](NC(=O)[C@H](C(C)C)N(C)C)C(C)C (stereo partly drawn) [Compound 3, AF-Arg-Phe-Lys(PEG4-Mal-Cys-Ac)-OH] (NMe2Val-V[Dil][Dolaproine]FRFK([PEG4-X1])-OH; N-terminus assumed)	0.11	–	–
COc1cc2cc(c1Cl)N(C)C(=O)C[C@H](OC(=O)[C@H](C)N(C)C(=O)CCSC1CC(=O)N(CCC(=O)N[C@@H](Cc3ccccc3)C(=O)N[C@@H](CCCCN)C(=O)N[C@@H](CCCCNC(=O)CCOCCOCCOCCOCCNC(=O)CCN3C(=O)CC(SC[C@H](NC(C)=O)C(=O)O)C3=O)C(=O)N[C@@H](Cc3ccccc3)C(=O)O)C1=O)[C@]1(C)O[C@H]1[C@H](C)[C@@H]1C[C@@](O)(NC(=O)O1)[C@H](OC)/C=C/C=C(\C)C2 (stereo partly drawn) [Compound 5, DM1-Mal-Phe-Lys-Lys(PEG4-Mal-Cys-Ac)-Phe-OH] ({DM1Mal(CH2)2CO}-FKK([PEG4-X1])F-OH; N-terminus assumed)	0.05	36 s	Cat B-induced drug release, faster as compared to reference Cys-MC-Val-Cit-PABC-MMAF (Cathepsin B): 20 times
COc1cc2cc(c1Cl)N(C)C(=O)C[C@H](OC(=O)[C@H](C)N(C)C(=O)CCSC1CC(=O)N(CCC(=O)N[C@@H](Cc3ccccc3)C(=O)N[C@@H](CCCNC(N)=O)C(=O)N[C@@H](CCCCNC(=O)CCOCCOCCOCCOCCNC(=O)CCN3C(=O)CC(SC[C@H](NC(C)=O)C(=O)O)C3=O)C(=O)N[C@@H](Cc3ccccc3)C(=O)O)C1=O)[C@]1(C)O[C@H]1[C@H](C)[C@@H]1C[C@@](O)(NC(=O)O1)[C@H](OC)/C=C/C=C(\C)C2 (stereo partly drawn) [Compound 6, DM1-Mal-Phe-Cit-Lys(PEG4-Mal-Cys-Ac)-Phe-OH] ({DM1Mal(CH2)2CO}-F[Cit]K([PEG4-X1])F-OH; N-terminus assumed)	0.02	18 s	–
COc1cc2cc(c1Cl)N(C)C(=O)C[C@H](OC(=O)[C@H](C)N(C)C(=O)CCSC1CC(=O)N(CCC(=O)N[C@@H](Cc3ccccc3)C(=O)N[C@@H](CCCNC(N)=O)C(=O)N[C@@H](Cc3ccccc3)C(=O)N[C@@H](CCCCNC(=O)CCOCCOCCOCCOCCNC(=O)CCN3C(=O)CC(SC[C@H](NC(C)=O)C(=O)O)C3=O)C(=O)O)C1=O)[C@]1(C)O[C@H]1[C@H](C)[C@@H]1C[C@@](O)(NC(=O)O1)[C@H](OC)/C=C/C=C(\C)C2 (stereo partly drawn) [Compound 7, DM1-Mal-Phe-Cit-Phe-Lys(PEG4-Mal-Cys-Ac)-OH] ({DM1Mal(CH2)2CO}-F[Cit]FK([PEG4-X1])-OH; N-terminus assumed)	0.09	72 s	–
CC[C@H](C)[C@@H]([C@@H](CC(=O)N1CCC[C@H]1[C@H](OC)[C@@H](C)C(=O)N[C@@H](Cc1ccccc1)C(=O)N[C@@H](CCCNC(N)=O)C(=O)N[C@@H](CCCCNC(=O)CCOCCOCCOCCOCCNC(=O)CCN1C(=O)CC(SC[C@H](NC(C)=O)C(=O)O)C1=O)C(=O)N[C@@H](Cc1ccccc1)C(=O)O)OC)N(C)C(=O)[C@@H](NC(=O)[C@H](C(C)C)N(C)C)C(C)C (stereo partly drawn) [Compound 8, AF-Cit-Lys(PEG4-Mal-Cys-Ac)-Phe-OH] (NMe2Val-V[Dil][Dolaproine]F[Cit]K([PEG4-X1])F-OH; N-terminus assumed)	0.09	–	–
COc1cc2cc(c1Cl)N(C)C(=O)C[C@H](OC(=O)[C@H](C)N(C)C(=O)CCSC1CC(=O)N(CC3CCC(C(=O)N[C@@H](Cc4ccccc4)C(=O)N[C@@H](CCCNC(N)=O)C(=O)N[C@@H](CCCCNC(=O)CCOCCOCCOCCOCCOCCNC(=O)CN4C(=O)CC(SC[C@H](NC(C)=O)C(=O)O)C4=O)C(=O)N[C@@H](Cc4ccc(O)cc4)C(=O)O)CC3)C1=O)[C@]1(C)O[C@H]1[C@H](C)[C@@H]1C[C@@](O)(NC(=O)O1)[C@H](OC)/C=C/C=C(\C)C2 (stereo partly drawn) [Compound 11, DM1-Mcc-Phe-Cit-Lys(PEG5-Ma-Cys-Ac)-Tyr-OH]	0.005	3.6 s	half-life [1]: ≤ 60 s
COc1cc2cc(c1Cl)N(C)C(=O)C[C@H](OC(=O)[C@H](C)N(C)C(=O)CCSC1CC(=O)N(CC3CCC(C(=O)N[C@@H](CCCNC(N)=O)C(=O)N[C@@H](CCCCNC(=O)CCOCCOCCOCCOCCOCCNC(=O)CN4C(=O)CC(SC[C@H](NC(C)=O)C(=O)O)C4=O)C(=O)N[C@@H](Cc4ccc(O)cc4)C(=O)O)CC3)C1=O)[C@]1(C)O[C@H]1[C@H](C)[C@@H]1C[C@@](O)(NC(=O)O1)[C@H](OC)/C=C/C=C(\C)C2 (stereo partly drawn) [Compound 12, DM1-Mcc-Cit-Lys(PEG5-Ma-Cys-Ac)-Tyr-OH]	0.00004	–	half-life [1]: ≤ 60 s
DM1-Ac-Cit	–	–	tolerability ([2]; 2 i.v. bolus injections at 7-day interval at 0.15, 0.68, and 1.4 mg/kg/adm, female CD-1 mice): well tolerated; related mortalities, clinical observations or effects on body weights and food consumption [2]: no; related ophthalmic findings or changes in clinical pathology parameters [2]: no; related organ weight changes, macroscopic and microscopic findings [2]: no macroscopic and microscopic findings; no observed adverse effect level (NOAEL) ([2]; DM1-Ac-Cit, 2 i.v. bolus injections at 7-day interval, female CD-1 mice): 1.4 mg/kg/adm
DM1-Ac-Cit-Lys(Cys-ma-Lys(PEG16))-Tyr-OH	–	–	tolerability ([2]; 2 i.v. bolus injections at 7-day interval at 3.5 mg/kg/adm): well tolerated; related mortalities, clinical observations or effects on body weights and food consumption [2]: no; related ophthalmic findings or changes in clinical pathology parameters [2]: no; related organ weight changes, macroscopic and microscopic findings [2]: no macroscopic and microscopic findings
